Data: PubChem BioAssay (NCI)
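48-hour exposure; five concentrations; linearly interpolated endpoints. GI50 marks 50% less growth. At the TGI there is no net growth.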

What was measured:
Test in all cases: DTP human tumour cell line panel, 48 h
SW-620 colon = tested on: SW-620 colon
NCI-H522 lung = tested on: NCI-H522 lung
SR leukemia = tested on: SR leukemia
DU-145 prostate = tested on: DU-145 prostate
U251 CNS = tested on: U251 CNS
HCT-116 colon = tested on: HCT-116 colon
SF-268 CNS = tested on: SF-268 CNS
COLO 205 colon = tested on: COLO 205 colon
SN12C renal = tested on: SN12C renal
A549 NSCLC = tested on: A549 NSCLC
786-0 renal = tested on: 786-0 renal
NCI-H226 lung = tested on: NCI-H226 lung
HOP-92 NSCLC = tested on: HOP-92 NSCLC
SNB-19 CNS = tested on: SNB-19 CNS
T-47D breast = tested on: T-47D breast
UACC-257 melanoma = tested on: UACC-257 melanoma
MCF7 breast = tested on: MCF7 breast
HCT-15 colon = tested on: HCT-15 colon
SK-MEL-5 melanoma = tested on: SK-MEL-5 melanoma
SK-MEL-28 melanoma = tested on: SK-MEL-28 melanoma
OVCAR-3 ovarian = tested on: OVCAR-3 ovarian
NCI/ADR-RES ovarian = tested on: NCI/ADR-RES ovarian
HL-60(TB) leukemia = tested on: HL-60(TB) leukemia
NCI-H23 lung = tested on: NCI-H23 lung
TK-10 renal = tested on: TK-10 renal
HT29 colon = tested on: HT29 colon
SK-MEL-2 melanoma = tested on: SK-MEL-2 melanoma
OVCAR-4 ovarian = tested on: OVCAR-4 ovarian
SF-295 CNS = tested on: SF-295 CNS
ACHN renal = tested on: ACHN renal
NCI-H460 lung = tested on: NCI-H460 lung
UACC-62 melanoma = tested on: UACC-62 melanoma
HS 578T breast = tested on: HS 578T breast
SNB-75 CNS = tested on: SNB-75 CNS
SK-OV-3 ovarian = tested on: SK-OV-3 ovarian
M14 melanoma = tested on: M14 melanoma
CCRF-CEM leukemia = tested on: CCRF-CEM leukemia
PC-3 prostate = tested on: PC-3 prostate
HOP-62 NSCLC = tested on: HOP-62 NSCLC
BT-549 breast = tested on: BT-549 breast
KM12 colon = tested on: KM12 colon
A498 renal = tested on: A498 renal
UO-31 renal = tested on: UO-31 renal
SF-539 CNS = tested on: SF-539 CNS
RPMI-8226 leukemia = tested on: RPMI-8226 leukemia
K-562 leukemia = tested on: K-562 leukemia
HCC-2998 colon = tested on: HCC-2998 colon
MDA-MB-435 = tested on: MDA-MB-435
OVCAR-5 ovarian = tested on: OVCAR-5 ovarian
MOLT-4 leukemia = tested on: MOLT-4 leukemia
LOX IMVI melanoma = tested on: LOX IMVI melanoma
OVCAR-8 ovarian = tested on: OVCAR-8 ovarian
IGROV1 ovarian = tested on: IGROV1 ovarian
RXF 393 renal = tested on: RXF 393 renal
MALME-3M melanoma = tested on: MALME-3M melanoma
EKVX NSCLC = tested on: EKVX NSCLC
CAKI-1 renal = tested on: CAKI-1 renal
MDA-MB-231 breast = tested on: MDA-MB-231 breast

Work on `CC1(C)N=C(N)N=C(N)N1c1cccc(CCCCc2ccc(S(=O)(=O)F)cc2Cl)c1` yielded a GI50 (SW-620 colon) of 0.701 µM, a TGI (SW-620 colon) of over 39.8 µM and a GI50 (NCI-H522 lung) of 3.6 µM. It also gave a TGI (NCI-H522 lung) of 20 µM, a GI50 (SR leukemia) of 0.456 µM and a TGI (SR leukemia) of over 49.5 µM. For the same molecule, the GI50 (DU-145 prostate) was 4.06 µM, the TGI (DU-145 prostate) was over 59.8 µM and the GI50 (U251 CNS) was 0.722 µM. The TGI (U251 CNS) was 20.4 µM, the GI50 (HCT-116 colon) was 1.06 µM and the TGI (HCT-116 colon) was over 37.7 µM. It also gave a GI50 (SF-268 CNS) of 1.96 µM, a TGI (SF-268 CNS) of 17.4 µM and a GI50 (COLO 205 colon) of 5.37 µM. For the same molecule, the TGI (COLO 205 colon) was 32.9 µM, the GI50 (SN12C renal) was 0.834 µM and the TGI (SN12C renal) was 22.5 µM. For the same molecule, the GI50 (A549 NSCLC) was 1.42 µM, the TGI (A549 NSCLC) was over 100 µM and the GI50 (786-0 renal) was 3.28 µM. The TGI (786-0 renal) was 24.5 µM, the GI50 (NCI-H226 lung) was 9.37 µM and the TGI (NCI-H226 lung) was 50.6 µM. The GI50 (HOP-92 NSCLC) was 14 µM, the TGI (HOP-92 NSCLC) was 47.8 µM and the GI50 (SNB-19 CNS) was 1.64 µM. The TGI (SNB-19 CNS) was 20.6 µM, the GI50 (T-47D breast) was 14 µM and the TGI (T-47D breast) was 34.5 µM. For the same molecule, the GI50 (UACC-257 melanoma) was 2.15 µM, the TGI (UACC-257 melanoma) was 20.8 µM and the GI50 (MCF7 breast) was 0.577 µM. It also gave a TGI (MCF7 breast) of 15.7 µM, a GI50 (HCT-15 colon) of 4.61 µM and a TGI (HCT-15 colon) of over 100 µM. The GI50 (SK-MEL-5 melanoma) was 1.87 µM, the TGI (SK-MEL-5 melanoma) was 16.4 µM and the GI50 (SK-MEL-28 melanoma) was 8.62 µM. For the same molecule, the TGI (SK-MEL-28 melanoma) was 22 µM, the GI50 (OVCAR-3 ovarian) was 5.37 µM and the TGI (OVCAR-3 ovarian) was 34.1 µM. The GI50 (NCI/ADR-RES ovarian) was 76 µM, the TGI (NCI/ADR-RES ovarian) was over 100 µM and the GI50 (HL-60(TB) leukemia) was 7.02 µM. For the same molecule, the TGI (HL-60(TB) leukemia) was 55.8 µM, the GI50 (NCI-H23 lung) was 4.27 µM and the TGI (NCI-H23 lung) was 27.3 µM. For the same molecule, the GI50 (TK-10 renal) was 8.66 µM, the TGI (TK-10 renal) was over 100 µM and the GI50 (HT29 colon) was 0.788 µM. It also gave a TGI (HT29 colon) of over 100 µM, a GI50 (SK-MEL-2 melanoma) of 6.42 µM and a TGI (SK-MEL-2 melanoma) of over 58.5 µM. For the same molecule, the GI50 (OVCAR-4 ovarian) was 13.9 µM, the TGI (OVCAR-4 ovarian) was over 100 µM and the GI50 (SF-295 CNS) was 2.44 µM. The TGI (SF-295 CNS) was over 38.8 µM, the GI50 (ACHN renal) was 8.66 µM and the TGI (ACHN renal) was over 100 µM. For the same molecule, the GI50 (NCI-H460 lung) was 0.465 µM, the TGI (NCI-H460 lung) was over 38.6 µM and the GI50 (UACC-62 melanoma) was 0.494 µM. The TGI (UACC-62 melanoma) was 17.1 µM, the GI50 (HS 578T breast) was 43.2 µM and the TGI (HS 578T breast) was over 100 µM. The GI50 (SNB-75 CNS) was 2.74 µM, the TGI (SNB-75 CNS) was 23.9 µM and the GI50 (SK-OV-3 ovarian) was 24.6 µM. For the same molecule, the TGI (SK-OV-3 ovarian) was over 100 µM, the GI50 (M14 melanoma) was 7.55 µM and the TGI (M14 melanoma) was 28.1 µM. It also gave a GI50 (CCRF-CEM leukemia) of 3.29 µM, a TGI (CCRF-CEM leukemia) of 36.5 µM and a GI50 (PC-3 prostate) of 0.581 µM. For the same molecule, the TGI (PC-3 prostate) was over 100 µM, the GI50 (HOP-62 NSCLC) was 5.72 µM and the TGI (HOP-62 NSCLC) was 20.7 µM. The GI50 (BT-549 breast) was 4.31 µM, the TGI (BT-549 breast) was over 46.3 µM and the GI50 (KM12 colon) was 1.72 µM. For the same molecule, the TGI (KM12 colon) was 15.7 µM, the GI50 (A498 renal) was over 48.2 µM and the TGI (A498 renal) was over 100 µM. It also gave a GI50 (UO-31 renal) of 14.6 µM, a TGI (UO-31 renal) of over 100 µM and a GI50 (SF-539 CNS) of 2.06 µM. For the same molecule, the TGI (SF-539 CNS) was 20.1 µM, the GI50 (RPMI-8226 leukemia) was 10.8 µM and the TGI (RPMI-8226 leukemia) was 41.9 µM. It also gave a GI50 (K-562 leukemia) of 3.42 µM, a TGI (K-562 leukemia) of over 100 µM and a GI50 (HCC-2998 colon) of 5.47 µM. For the same molecule, the TGI (HCC-2998 colon) was 38.8 µM, the GI50 (MDA-MB-435) was 0.611 µM and the TGI (MDA-MB-435) was 18.5 µM. The GI50 (OVCAR-5 ovarian) was 6.29 µM, the TGI (OVCAR-5 ovarian) was over 100 µM and the GI50 (MOLT-4 leukemia) was 7.42 µM. The TGI (MOLT-4 leukemia) was over 65.3 µM, the GI50 (LOX IMVI melanoma) was 1.34 µM and the TGI (LOX IMVI melanoma) was over 41.7 µM. For the same molecule, the GI50 (OVCAR-8 ovarian) was 6.17 µM, the TGI (OVCAR-8 ovarian) was over 61.4 µM and the GI50 (IGROV1 ovarian) was 0.313 µM. It also gave a TGI (IGROV1 ovarian) of over 38.5 µM, a GI50 (RXF 393 renal) of 9.46 µM and a TGI (RXF 393 renal) of over 87.3 µM. The GI50 (MALME-3M melanoma) was 1.12 µM, the TGI (MALME-3M melanoma) was 28.2 µM and the GI50 (EKVX NSCLC) was 2.02 µM. The TGI (EKVX NSCLC) was over 67.5 µM, the GI50 (CAKI-1 renal) was 9.21 µM and the TGI (CAKI-1 renal) was over 100 µM. It also gave a GI50 (MDA-MB-231 breast) of 10.9 µM and a TGI (MDA-MB-231 breast) of 43.1 µM.
